Data: publication PMC4977651, “Molecular features of biguanides required for targeting of mitochondrial respiratory complex I and activation of AMP-kinase” (BMC Biology, 2016)
pIC50: −log10 of the molar value. Like-named read-outs stand apart in the source and are kept apart here.

Legend:
[1] = target: isolated bovine heart complex I (Bos taurus, UniProt P03887+P03898+P17694+P42026); assay: NADH:decylubiquinone oxidoreduction by isolated complex I; assay type: biochemical; settings: for HillSlope (best fit value) / LogIC50 (best fit value): Prism fit; for HillSlope (best fit value): no std. error; for LogIC50 (best fit value): log of IC50 in mM
Sequence of isolated bovine heart complex I (P42026 38-216): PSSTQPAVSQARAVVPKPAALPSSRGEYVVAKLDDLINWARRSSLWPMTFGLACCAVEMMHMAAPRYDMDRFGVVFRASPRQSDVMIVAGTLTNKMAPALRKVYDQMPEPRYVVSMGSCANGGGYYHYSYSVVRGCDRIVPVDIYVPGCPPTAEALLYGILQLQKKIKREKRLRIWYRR
Sequence of isolated bovine heart complex I (P17694 34-463): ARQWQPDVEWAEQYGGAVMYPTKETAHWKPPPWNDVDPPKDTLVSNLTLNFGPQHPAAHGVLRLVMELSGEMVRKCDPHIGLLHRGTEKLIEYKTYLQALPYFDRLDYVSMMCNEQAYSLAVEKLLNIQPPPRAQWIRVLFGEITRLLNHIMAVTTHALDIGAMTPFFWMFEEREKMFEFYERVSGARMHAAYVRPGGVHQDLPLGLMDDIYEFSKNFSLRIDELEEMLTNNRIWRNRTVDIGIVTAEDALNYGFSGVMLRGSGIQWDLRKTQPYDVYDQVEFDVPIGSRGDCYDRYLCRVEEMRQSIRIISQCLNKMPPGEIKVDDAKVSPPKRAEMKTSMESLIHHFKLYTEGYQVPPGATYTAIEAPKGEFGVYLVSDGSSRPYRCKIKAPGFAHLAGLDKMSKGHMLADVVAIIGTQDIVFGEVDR
Sequence of isolated bovine heart complex I (P03898 whole entry): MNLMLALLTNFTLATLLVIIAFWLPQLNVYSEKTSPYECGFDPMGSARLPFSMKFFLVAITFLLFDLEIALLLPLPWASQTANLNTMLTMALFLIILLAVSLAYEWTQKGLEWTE
Sequence of isolated bovine heart complex I (P03887 whole entry): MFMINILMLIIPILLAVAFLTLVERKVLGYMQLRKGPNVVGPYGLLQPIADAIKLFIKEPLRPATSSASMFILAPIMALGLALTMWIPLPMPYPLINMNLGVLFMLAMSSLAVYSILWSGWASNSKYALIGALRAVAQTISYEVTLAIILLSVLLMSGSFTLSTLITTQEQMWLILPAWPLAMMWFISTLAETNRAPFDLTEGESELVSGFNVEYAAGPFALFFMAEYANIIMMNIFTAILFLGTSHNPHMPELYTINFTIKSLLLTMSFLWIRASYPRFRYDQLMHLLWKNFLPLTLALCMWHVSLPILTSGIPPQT
Method: (§1) Complex I and mitochondrial membranes were prepared from Bos taurus (bovine) heart. Intact mitochondria were isolated from rat liver and mouse heart and liver. Membranes were prepared from mouse heart mitochondria by 5 s bursts of sonication at 4 °C and collected by centrifugation (75,000 × g, 1 h).
(§2) Assays were performed at 32 °C in a SpectraMax 96-well plate reader. NADH:decylubiquinone oxidoreduction by complex I at 0.5 μg mL^−1 was measured in 20 mM Tris-HCl (pH 7.2), 0.15 % soy bean asolectin (Avanti Polar Lipids), and 0.15 % 3-((3-cholamidopropyl)dimethylammonium)-1-propanesulfonate (CHAPS, Merck Chemicals Ltd), with 200 μM decylubiquinone and 200 μM NADH, and monitored using ε340–380(NADH) = 4.81 mM^−1 cm^−1 [23]. Catalysis was initiated by addition of NADH and maximal rates determined by linear regression. NADH:O2 oxidoreduction by membranes was measured similarly but using 5 μg mL^−1 membranes in 10 mM Tris-HCl (pH 7.4) and 250 mM sucrose using 200 μM NADH and supplemented with 0.15 mM horse heart cytochrome c (Sigma-Aldrich Ltd.). Succinate:O2 oxidoreduction was measured using 40 μg mL^−1 membranes in 5 mM succinate in 10 mM Tris-HCl (pH 7.4) as described previously. Control experiments included NaCl (to match the ionic strength) or DMSO, as appropriate.
(§3) Experimental values are reported as mean averages ± standard deviation (SD) of technical replicates for large sample sizes and mean averages ± standard error of the mean (SEM) of technical replicates for small sample sizes. Data were analyzed by the unpaired two-tailed Student’s t test. IC50 values were determined using the standard dose-effect relationship (activity (%) = 100 × IC50 / (IC50 + [inhibitor]^m) with the Hill Slope (m) set to unity for purified complex I) and are reported with 95 % confidence intervals.

[2] = target: bovine heart mitochondrial membranes (complex I) (Bos taurus, UniProt P03887+P03898+P17694+P42026); assay: NADH:O2 oxidoreduction by bovine heart mitochondrial membranes (complexes I-III-IV); assay type: biochemical
Sequence of bovine heart mitochondrial membranes (complex I) (P42026 38-216): as the sequence (P42026 38-216) above
Sequence of bovine heart mitochondrial membranes (complex I) (P17694 34-463): as the sequence (P17694 34-463) above
Sequence of bovine heart mitochondrial membranes (complex I) (P03887 whole entry): as the sequence (P03887 whole entry) above
Sequence of bovine heart mitochondrial membranes (complex I) (P03898 whole entry): as the sequence (P03898 whole entry) above
Method: as §1, §2, §3

[3] = system: bovine mitochondrial membranes (complexes II-III-IV); assay: Succinate:O2 oxidoreduction (complexes II-III-IV, complex II assay) by bovine mitochondrial membranes; assay type: biochemical, Bos taurus; settings: biguanide concentrations set to the IC50 values for NADH:O2 on bovine membranes; control = 100.00; n = 3
Method: as §2

[4] = Octanol/PBS partition coefficient, shake-flask method; assay type: physicochemical; settings: 32 °C, pH 7.4, n = 3
Method: Octanol/PBS partition coefficients were measured by the shake-flask method at 32 °C, pH 7.4.

143B cells = assay: Rotenone-sensitive oxygen consumption rate in intact 143B cells; assay type: cell-based, human; settings: for rotenone sensitive OCR after 6 hours of biguanide exposure, % control, average / rotenone sensitive OCR after 6 hours of biguanide exposure, average: 143B cells, biguanide at IC50/10; for rotenone sensitive OCR after 6 hours of biguanide exposure, average: OCR normalized to OCR immediately prior to biguanide addition; for inhibition of rotenone-sensitive respiration (in words): intact 143B cells, biguanide at IC50/10, monitored for 6 h
Method: 143B (CRL-8303 from ATCC), HepG2 (85011430 from The Health Protection Agency), and MDBK (CCL-22 from ATCC) cells were grown on Dulbecco’s modified Eagle’s medium (DMEM) supplemented with 10 % fetal bovine serum (FBS, Thermo Fisher Scientific) at 37 °C in 5 % CO2. All cells were confirmed as negative for mycoplasma.
Oxygen consumption rates (OCRs) were measured using a Seahorse XF96 extracellular flux analyzer at 37 °C. For intact cell measurements, 1.4 × 10^4 143B, HepG2, or MDBK cells were plated (per well) in DMEM containing 10 % FBS into Seahorse Bioscience Inc. XF96 plates and incubated for ~12 h at 37 °C in 5 % CO2. Then, the medium was exchanged for assay buffer containing DMEM, 4.5 g L^−1 glucose, 1 mM pyruvate, 32 mM NaCl, 2 mM GlutaMAX, 15 mg L^−1 phenol red, and 20 mM HEPES (pH 7.4 at 37 °C) and the cells placed in a CO2-free incubator at 37 °C for 30 min. Basal oxygen consumption rates were established before the addition of biguanides at one-tenth of their IC50 (IC50/10), and followed for ~ 6 h before the addition of rotenone (2 μM).
Rotenone-sensitive OCRs were calculated by subtracting the rotenone-insensitive rates (determined at the end of the experiment). OCRs were normalized by dividing by the OCR recorded immediately prior to the addition of biguanide. For rate of uptake calculations, the OCRs at time points after biguanide addition were divided by the OCRs at the same time points in control experiments. Data from wells with failed port injections were excluded from the analyses. The respiratory control ratio (RCR) values (state III versus state IV respiration) were ~11 and ~6 for permeabilized MDBK and 143B cells, respectively.

AMPK-α (phospho-Thr172) = assay: AMPK activation, western blot of phospho-AMPK-α in MDBK cells; assay type: cell-based, Bos taurus; settings: for p-alpha, average normalised to control: Averages of experiments 1-3, 18 hours; for p-alpha: band intensity
Method: MDBK cells were seeded at 1 × 10^6 cells per 6 cm dish in DMEM containing 10 % FBS. […] After 18 h cells were harvested by a rapid lysis procedure: cells were rinsed with PBS, then lysed using ice-cold buffer containing 50 mM HEPES, 1 mM EDTA, 10 % glycerol, 50 mM NaF, 5 mM sodium pyrophosphate, 1 % Triton-X100, 1 mM dithiothreitol (DTT), and a protease inhibitor cocktail (Roche). The cell lysate was centrifuged at 14,000 × g for 20 min at 4 °C and the protein concentration of the supernatant determined by bicinchoninic acid assay. The lysate was analyzed using Novex 3–12 % bis-Tris gels run in 3-(N-morpholino)propanesulfonic acid (MOPS) buffer (20 μg of protein per lane) followed by transfer to low fluorescence polyvinylidene fluoride membranes by wet transfer. Primary rabbit antibodies for AMPK-β (57C12), AMPK-α (phospho-Thr172) (40H9), and acetyl-coA carboxylase (phospho-Ser79) (Cell Signaling Technology) were incubated overnight with the membrane (1:1000 dilution) in Odyssey blocking buffer at 4 °C. A fluorescent secondary antibody was used (IRDYE800CW from LI-COR Biosciences, 1:20,000 dilution) with a LI-COR Odyssey imaging system.

[5] = bovine heart purified mitochondrial complex I
[6] = log of concentration in mM; sample given as Bovine heart mitochondrial membranes; Prism variable slope fit, Bottom 0, Top 100
[7] = sample given as Bovine heart mitochondrial membranes; Prism variable slope fit, Bottom 0, Top 100

In the case of `NC(N)=NC(N)=NCCc1ccc(Cl)cc1` [compound 1, 2-[2-(4-chlorophenyl)ethyl]-1-(diaminomethylidene)guanidine], the “HillSlope (best fit value)” value [1, 5] was 1, the pIC50 ([1]; bovine heart purified mitochondrial complex I, Prism log(inhibitor) vs. response fit, Bottom 0, Top 100, read-out: IC50 (best fit value)) was 3.71 and the remaining activity at 50 µM ([1]; bovine heart purified mitochondrial complex I, inhibitor 0.05 mM, read-out: average % (rate, % of no-inhibitor control)) was 78.7%. The remaining activity at 100 µM ([1]; bovine heart purified mitochondrial complex I, inhibitor 0.10 mM, read-out: average % (rate, % of no-inhibitor control)) was 67.7%, the remaining activity at 250 µM ([1]; bovine heart purified mitochondrial complex I, inhibitor 0.25 mM, read-out: average % (rate, % of no-inhibitor control)) was 44.8% and the remaining activity at 500 µM ([1]; bovine heart purified mitochondrial complex I, inhibitor 0.50 mM, read-out: average % (rate, % of no-inhibitor control)) was 28.6%. For the same molecule, the remaining activity at 1000 µM ([1]; bovine heart purified mitochondrial complex I, inhibitor 1.00 mM, read-out: average % (rate, % of no-inhibitor control)) was 15.1%, the remaining activity at 2500 µM ([1]; bovine heart purified mitochondrial complex I, inhibitor 2.50 mM, read-out: average % (rate, % of no-inhibitor control)) was 2.59% and the remaining activity at 5000 µM ([1]; bovine heart purified mitochondrial complex I, inhibitor 5.00 mM, read-out: average % (rate, % of no-inhibitor control)) was 1.32%. The “LogIC50 (best fit value)” value [1, 5] was -0.7098, the remaining activity at 25 µM ([2]; bovine heart mitochondrial membranes; inhibitor 0.025 mM; read-out: average % (rate, % of no-inhibitor control)) was 91.4% and the remaining activity at 50 µM ([2]; bovine heart mitochondrial membranes; inhibitor 0.05 mM; read-out: average % (rate, % of no-inhibitor control)) was 77.5%. It also gave a remaining activity at 120 µM ([2]; bovine heart mitochondrial membranes; inhibitor 0.12 mM; read-out: average % (rate, % of no-inhibitor control)) of 66.8%, a remaining activity at 250 µM ([2]; bovine heart mitochondrial membranes; inhibitor 0.25 mM; read-out: average % (rate, % of no-inhibitor control)) of 57.4% and a remaining activity at 500 µM ([2]; bovine heart mitochondrial membranes; inhibitor 0.50 mM; read-out: average % (rate, % of no-inhibitor control)) of 44.1%. For the same molecule, the remaining activity at 1000 µM ([2]; bovine heart mitochondrial membranes; inhibitor 1.00 mM; read-out: average % (rate, % of no-inhibitor control)) was 35.1%, the remaining activity at 2000 µM ([2]; bovine heart mitochondrial membranes; inhibitor 2.00 mM; read-out: average % (rate, % of no-inhibitor control)) was 28.9% and the “LogIC50 (best fit value)” value [2, 6] was -0.4001. For the same molecule, the pIC50 ([2]; sample given as Bovine heart mitochondrial membranes; Prism log(inhibitor) vs. response variable slope fit (four parameters), Bottom 0, Top 100; read-out: IC50 (best fit value)) was 3.40, the “HillSlope (best fit value)” value [2, 7] was -0.6555 and the “Complex II assay (succinate:O2 oxidoreduction), average” value [3] was 92.41. For the same molecule, the logP [4] was 0.149, the “rotenone sensitive OCR after 6 hours of biguanide exposure, % control, average” value (143B cells) was 3.06 % control and the “rotenone sensitive OCR after 6 hours of biguanide exposure, average” value (143B cells) was 3.59. The “inhibition of rotenone-sensitive respiration (in words)” value (143B cells) was “inhibit respiration”, the “AMPK activation (in words)” value (AMPK-α (phospho-Thr172); 18-h treatment, IC50/10 biguanide concentrations) was “slightly lower activation” and the “p-alpha, average normalised to control” value (AMPK-α (phospho-Thr172)) was 5.54. For the same molecule, the “p-alpha / AMPK beta” value (AMPK-α (phospho-Thr172); Experiment 1, 18 hours) was 0.63, the “p-alpha / AMPK beta normalised to control” value (AMPK-α (phospho-Thr172); Experiment 1, 18 hours) was 5.05 and the p-alpha (AMPK-α (phospho-Thr172); Experiment 1, 18 hours) was 288. For the same molecule, the “p-alpha / AMPK beta” value (AMPK-α (phospho-Thr172); Experiment 2, 18 hours) was 1.08, the “p-alpha / AMPK beta normalised to control” value (AMPK-α (phospho-Thr172); Experiment 2, 18 hours) was 7.41 and the p-alpha (AMPK-α (phospho-Thr172); Experiment 2, 18 hours) was 388. For the same molecule, the “p-alpha / AMPK beta” value (AMPK-α (phospho-Thr172); Experiment 3, 18 hours) was 0.86, the “p-alpha / AMPK beta normalised to control” value (AMPK-α (phospho-Thr172); Experiment 3, 18 hours) was 4.15 and the p-alpha (AMPK-α (phospho-Thr172); Experiment 3, 18 hours) was 220.
In the case of `N=C(N)NC(N)=Nc1ccccc1` [compound 2, phenyl biguanide], the pIC50 [1] was 3.34, the “HillSlope (best fit value)” value [1, 5] was 1 and the “LogIC50 (best fit value)” value [1, 5] was -0.3388. The “LogIC50 (best fit value)” value [2, 6] was -0.3757, the pIC50 ([2]; read-out: IC50 (best fit value); sample given as Bovine heart mitochondrial membranes; Prism log(inhibitor) vs. response variable slope fit (four parameters), Bottom 0, Top 100) was 3.38 and the “HillSlope (best fit value)” value [2, 7] was -0.7595. The “Complex II assay (succinate:O2 oxidoreduction), average” value [3] was 92.05, the “P (partition coefficient)” value [4] was 0.236 and the logP [4] was -0.627. For the same molecule, the “rotenone sensitive OCR after 6 hours of biguanide exposure, % control, average” value (143B cells) was 98.12 % control, the “rotenone sensitive OCR after 6 hours of biguanide exposure, average” value (143B cells) was 115.02 and the “inhibition of rotenone-sensitive respiration (in words)” value (143B cells) was “do not”. The “p-alpha, average normalised to control” value (AMPK-α (phospho-Thr172)) was 1.18, the “p-alpha / AMPK beta” value (AMPK-α (phospho-Thr172); Experiment 1, 18 hours) was 0.14 and the “p-alpha / AMPK beta normalised to control” value (AMPK-α (phospho-Thr172); Experiment 1, 18 hours) was 1.11. The p-alpha (AMPK-α (phospho-Thr172); Experiment 1, 18 hours) was 64.6, the “p-alpha / AMPK beta” value (AMPK-α (phospho-Thr172); Experiment 2, 18 hours) was 0.17 and the “p-alpha / AMPK beta normalised to control” value (AMPK-α (phospho-Thr172); Experiment 2, 18 hours) was 1.14. The p-alpha (AMPK-α (phospho-Thr172); Experiment 2, 18 hours) was 57.4, the “p-alpha / AMPK beta” value (AMPK-α (phospho-Thr172); Experiment 3, 18 hours) was 0.27 and the “p-alpha / AMPK beta normalised to control” value (AMPK-α (phospho-Thr172); Experiment 3, 18 hours) was 1.28. For the same molecule, the p-alpha (AMPK-α (phospho-Thr172); Experiment 3, 18 hours) was 57.3.
